Literature values in PMC8450225 (Bioorganic & Medicinal Chemistry, 2021).
Like-named read-outs stand apart in the source and are kept apart here. Primed or numbered codes have the meaning given here. Bz′ = not defined here

What was measured:
HuH-7 cells = conditions: 1 µM, three days of incubation on HuH-7 cells, Alamar Blue
dengue serotype 2 = conditions: at 1 µM concentration, HuH-7 and K562 cell lines
DENV NS2B-NS3 pro = conditions: 50 µM substrate concentration and 50 µM compound concentration
WNV NS2B-NS3 pro = conditions: 50 µM substrate concentration and 25 µM compound concentration
DENV2 pro [1] = system: DENV2 pro
DENV2 [2] = conditions: DENV2 viral replication assay
DENV2 pro [3] = system: DENV2 pro; remark: listed apart in the source
DENV 1–4 pro = conditions: range over DENV 1–4 pro
DENV2 [4] = conditions: DENV2 replication inhibition, BHK21 cells
DENV2 pro [5] = system: DENV2 pro; remark: listed apart in the source
DENV2 [6] = conditions: antiviral activity against DENV2
DENV2 pro [7] = system: DENV2 pro; remark: listed apart in the source
NS2B-NS3 pro = conditions: read-out: Ki (Reported)
DENV2 pro [8] = system: DENV2 pro; remark: listed apart in the source
DENV = conditions: at 100 µM

For `O=C1c2c(O)ccc([N+](=O)[O-])c2C(=O)c2c([N+](=O)[O-])ccc(O)c21` [ARDP0006], the cytotoxicity (HuH-7 cells) is given as “non-cytotoxic” and the “reduction of dengue viral titer” value (dengue serotype 2) is given as > 1 log PFU/mL.
For `CN(C)C(=O)COC(=O)Cc1ccc(OC(=O)c2ccc(NC(=N)N)cc2)cc1` [Camostat], the “Percentage inhibition of NS2B-NS3 pro, DENV” value (DENV NS2B-NS3 pro) is listed as 19.6% and the “Percentage inhibition of NS2B-NS3 pro, WNV” value (WNV NS2B-NS3 pro) is listed as 12.6%.
In the case of `CC(=O)O[C@H]1CC(C)(C)C(=C=C/C(C)=C/C=C/C=C/C=C(C)/C=C2C=C(/C=C/[C@@]34O[C@]3(C)C[C@@H](O)CC4(C)C)C(=O)O/2)[C@](C)(O)C1` [Compound 35, peridinin], the EC50 (DENV2 pro [1]) is listed as 8.5 ± 0.41 µM.
For `O=C(Nc1nc2cc(O)c(O)cc2s1)c1ccccc1Sc1ccc(C(F)(F)F)cc1` [Compound 38], the EC50 (DENV2 [2]) is given as > 3 µM.
For `O=C(Nc1nc2cc(O)c(O)cc2s1)c1ccccc1Oc1ccc2cc(O)ccc2c1` [Compound 39], the IC50 (DENV2 pro [3]) is given as 4.2 ± 0.44 µM.
In the case of `COc1cc2nc(NC(=O)c3ccccc3Sc3ccc(C(F)(F)F)cc3)sc2cc1OC` [Compound 40], the IC50 (DENV2 pro [3]) is given as “inactive”.
For `Cc1ccc(C2=NC(=O)/C(=C/c3cc(O)c(O)c(Br)c3)S2)cc1` [Compound 42], the IC50 (DENV 1–4 pro) is listed as 2.94 to 4.06 µM and the EC50 (DENV2 [4]) is listed as 6.9 ± 0.6 µM.
For `Cc1ccc(C(=O)c2cc(O)c(O)c([N+](=O)[O-])c2)cc1` [Compound 43], the IC50 (DENV 1–4 pro) is given as 0.64 to 1.15 µM and the EC50 (DENV2 [4]) is given as 2.29 µM.
In the case of `O=C(OC[C@H]1O[C@@H](OC(=O)c2cc(O)c(O)c(OC(=O)c3cc(O)c(O)c(O)c3)c2)[C@H](OC(=O)c2cc(O)c(O)c(OC(=O)c3cc(O)c(O)c(O)c3)c2)[C@@H](OC(=O)c2cc(O)c(O)c(OC(=O)c3cc(O)c(O)c(O)c3)c2)[C@@H]1OC(=O)c1cc(O)c(O)c(OC(=O)c2cc(O)c(O)c(O)c2)c1)c1cc(O)c(O)c(OC(=O)c2cc(O)c(O)c(O)c2)c1` [Compound 44], the IC50 (DENV 1–4 pro) is given as 0.13 to 0.77 µM.
In the case of `CCc1ccc(NS(=O)(=O)c2ccc(N3C(=O)c4ccccc4C3=O)cc2)cc1` [Compound 46], the IC50 (DENV2 pro [5]) is listed as 48.2 µM.
In the case of `CCCCC1C(C(=O)N(C)OC)C(c2ccccc2)CCN1C(=O)OC(C)(C)C` (stereo not shown) [Compound 51], the EC50 (DENV2 [6]) is given as 2.4 µM.
In the case of `Cc1cc(O)c(S(=O)(=O)O)cc1Cc1cc(S(=O)(=O)O)c(O)c(Cc2cc(S(=O)(=O)O)c(O)cc2C)c1C` [Compound 60], the IC50 (DENV2 pro [7]) is listed as “IC50 = 0.48 μg/mL”.
For Ac-RTSKKR-NH2, the Ki (NS2B-NS3 pro) is given as 12.1 µM.
For “BZ-Ala-Lys-Arg-Arg-H ({Bz′}-AKRR-aldehyde; also: C-terminal aldehyde)”, the Ki (NS2B-NS3 pro) is listed as 5.3 µM.
For “Bz-Arg-Lys-(4-CF3-benzyl ether)-D-Phg-NH2 [Compound 7]”, the IC50 (DENV2 pro [8]) is given as 0.069 µM.
For Bz-Arg-Lys-(4-benzyloxy)-D-Phg-NH2, the IC50 (DENV2 pro [8]) is listed as 0.367 µM.
For Bz-Arg-Lys-Phg-NH2 [reference compound], the IC50 (DENV2 pro [8]; starting tripeptide) is given as 3.32 µM.
For kaempferol-3-O-rutinoside [Compound 24], the DENV inhibition (DENV) is given as 77.7%.
